The text below walks through data of BindingDB's records for patent US10780090 (Millennium Pharmaceuticals, Inc., 2020).

This test has as its target T1, SUMO-activating enzyme subunit 2 (Human, UniProt Q9UBT2).
T1 sequence (Q9UBT2 whole entry): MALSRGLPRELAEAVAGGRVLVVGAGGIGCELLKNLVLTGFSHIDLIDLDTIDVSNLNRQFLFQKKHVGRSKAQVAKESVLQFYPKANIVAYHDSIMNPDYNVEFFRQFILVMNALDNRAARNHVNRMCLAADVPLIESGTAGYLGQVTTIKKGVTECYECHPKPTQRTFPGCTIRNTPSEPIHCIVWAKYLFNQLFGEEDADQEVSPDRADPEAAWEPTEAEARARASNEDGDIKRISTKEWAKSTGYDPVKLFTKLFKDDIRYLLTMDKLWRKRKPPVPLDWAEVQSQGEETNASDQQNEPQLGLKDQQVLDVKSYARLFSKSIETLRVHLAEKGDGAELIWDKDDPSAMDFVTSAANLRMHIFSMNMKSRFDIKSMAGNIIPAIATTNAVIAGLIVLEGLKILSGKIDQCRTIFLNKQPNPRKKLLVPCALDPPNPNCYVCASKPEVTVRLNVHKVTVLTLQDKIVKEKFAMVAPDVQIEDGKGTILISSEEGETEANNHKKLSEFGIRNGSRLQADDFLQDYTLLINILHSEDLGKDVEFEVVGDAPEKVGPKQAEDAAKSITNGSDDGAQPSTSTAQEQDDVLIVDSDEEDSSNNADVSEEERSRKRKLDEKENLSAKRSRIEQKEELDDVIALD
Briefly: Enzyme Assay. The method, then: After incubation for 2 hours at 24° C., quantification of FRET is performed on the Pherostar (BMG Labtech). Percentage inhibition values at a single concentration or enzyme inhibition (IC50) values are determined from those curves. One skilled in the art will appreciate that the values generated either as percentage inhibition at a single concentration or IC50 values are subject to experimental variation.

Bounds are passed on as bounds.

The term IC50 denotes the concentration needed to halve the response being measured. High values mean a need for much substance, low ones inhibition by little substance. Regarding `CN(c1ncncc1C(=O)c1cc([C@@H]2OCCc3ccc(Cl)cc32)c(CO)s1)[C@@H]1C[C@H](COS(N)(=O)=O)[C@@H](O)C1` [US10780090, Compound I-366], the IC50 is < 10 nM.

As to `Cc1sc(C(=O)c2cncnc2N[C@@H]2C[C@H](COS(N)(=O)=O)[C@@H](O)C2)cc1[S@+]([O-])c1cccc(C(F)(F)F)c1` [US10780090, Compound I-69], the IC50 is < 10 nM.

For `CC(C)(C)OC(=O)N1CCc2ccc(Cl)cc2[C@@H]1c1cc(C(=O)c2cncnc2N[C@@H]2C[C@H](COS(N)(=O)=O)[C@@H](O)C2)sc1Cl` [US10780090, Compound I-336], the IC50 lay in the range of 100 to 1000 nM.

With `CC(C)(C)OC(=O)N1CCc2ccc(Cl)cc2[C@@H]1c1csc(C(=O)c2cncnc2N[C@@H]2C[C@H](COS(N)(=O)=O)[C@@H](O)C2)c1` [US10780090, Compound I-334], the IC50 was in the range of 100 to 1000 nM.

`Cc1sc(C(=O)c2cncnc2N[C@@H]2C[C@H](COS(N)(=O)=O)[C@@H](O)C2)cc1[C@@H]1OCC(F)(F)c2ncccc21` [US10780090, Compound I-331] returned an IC50 of 100 to 1000 nM.

`CN1Cc2ccccc2[C@@H]1c1csc(C(=O)c2cncnc2N[C@@H]2C[C@H](COS(N)(=O)=O)[C@@H](O)C2)c1` [US10780090, Compound I-308]: the IC50 is < 10 nM.

`NS(=O)(=O)OC[C@H]1C[C@@H](Nc2ncncc2C(=O)c2cc(Cc3cccc(Br)n3)c(Cl)s2)C[C@@H]1O` [US10780090, Compound I-46]: the half-maximal inhibitory concentration (IC50) was < 10 nM.

On to `C[C@@]1(c2csc(C(=O)c3cncnc3N[C@@H]3C[C@H](COS(N)(=O)=O)[C@@H](O)C3)c2)NCCc2ccccc21` [US10780090, Compound I-318], for which the IC50 is < 10 nM.

As for `Cc1sc(C(=O)c2cncnc2N[C@@H]2C[C@H](COS(N)(=O)=O)[C@@H](O)C2)cc1[C@@H]1OCC(F)(F)c2ccc(Cl)cc21` [US10780090, Compound I-288], the concentration for half-maximal inhibition (IC50) was < 10 nM.

With `Cc1sc(C(=O)c2cncnc2N[C@@H]2C[C@H](COS(N)(=O)=O)[C@@H](O)C2)cc1[C@@H]1OCCc2ccc(C#N)cc21` [US10780090, Compound I-313], the half-maximal inhibitory concentration (IC50) is < 10 nM.

In the case of `CN1Cc2ccccc2[C@@H]1c1cc(C(=O)c2cncnc2N[C@@H]2C[C@H](COS(N)(=O)=O)[C@@H](O)C2)sc1Cl` [US10780090, Compound I-304], the concentration for half-maximal inhibition (IC50) is < 10 nM.

Take `NS(=O)(=O)OC[C@H]1C[C@@H](Nc2ncncc2C(=O)c2cc(Cc3cccc(Br)c3)c(Cl)s2)C[C@@H]1O` [US10780090, Compound I-112]: the IC50 was < 10 nM.
